This passage reports relative viability results from the supplement of paper PMC10307832.

Test in all cases: relative viability (nuclei count vs DMSO), 5 days (fraction); higher = more cells survive
Compound in one experiment: CC[C@H](Nc1ncnc2[nH]cnc12)c1nc2cccc(F)c2c(=O)n1-c1ccccc1 [Idelalisib]
In a few lines: (§1)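 In 1536-well plates, lung cancer cell lines rested overnight at 37 °C before five library-drug doses (not always all listed), √10 apart, were pinned onto vehicle-anchored plates. Nuclei were counted with MetaXpress from 4× Hoechst images taken after 5 days without medium change. Viability compares treated-well with vehicle-well nuclei as a median over plates, and plates needed control CV below 25% plus at least one doubling to pass.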

Compound in a further experiment: Nc1nc2[nH]cc(CCc3ccc(C(=O)N[C@@H](CCC(=O)O)C(=O)O)cc3)c2c(=O)[nH]1 [Pemetrexed]
In a few lines:
as §1

Compound in the experiment “Idelalisib + Crizotinib”: CC[C@H](Nc1ncnc2[nH]cnc12)c1nc2cccc(F)c2c(=O)n1-c1ccccc1 [Idelalisib] + C[C@@H](Oc1cc(-c2cnn(C3CCNCC3)c2)cnc1N)c1c(Cl)ccc(F)c1Cl [Crizotinib] (partner 1 µM)
In a few lines: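 Relative viability is defined as nuclei in treated wells over nuclei in vehicle wells. Duplicate plates were run and medians reported. Lung cancer cell lines in 1536-well plates were dosed by pin tool one day after seeding, with one drug or with a fixed anchor-drug dose plus five library-drug doses (not always all listed) in √10 steps, and nuclei were counted after 5 days.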

For the cell line UMC-11, the relative viability with Idelalisib (0.04 µM) came to 1.04; with Idelalisib (0.1265 µM), 1.05; with Idelalisib (0.4 µM), 0.921; in the experiment with Idelalisib (1.265 µM) it was 1.01; in the experiment with Idelalisib (4 µM), 0.984; with Pemetrexed (0.002 µM), 0.996. In addition, the relative viability in the experiment with Pemetrexed (0.006325 µM) came to 0.955; with Pemetrexed (0.02 µM), 1.04; with Pemetrexed (0.06325 µM), 1.03; with Pemetrexed (0.2 µM), 0.846; in the experiment with Pemetrexed (0.2 µM, anchor plate), 0.805; in the experiment with Idelalisib + Crizotinib (first compound 0.04 µM) it was 0.708. Further, the relative viability was determined as 0.694 with Idelalisib + Crizotinib (first compound 0.1265 µM), 0.583 with Idelalisib + Crizotinib (first compound 0.4 µM), 0.541 in the experiment with Idelalisib + Crizotinib (first compound 1.265 µM) and 0.57 with Idelalisib + Crizotinib (first compound 4 µM).
